Data on three compounds can be found in patent publication US11203770B2, “Methods for producing caprylic acid and/or caprylate” (Cornell University, priority 2016, dated 2021).

The conditions of data set [1]: cited from earlier work.
Data set [2] has as its system methanogens. The experiment in a line: toxicity to methanogens in small serum bottles. Format: cell-based. The settings on record: concentrations present in the bioreactor. The text has this: Thus, at a pH of 7.0 we would have anticipated a methanogenic anaerobic digester rather than a chain elongating bioreactor. […] This explains why we can chain elongate at the higher pH levels without adding a methanogenic-inhibiting compound such as bromo-ethanesulfonate (BrES). […] This substantiates the claim that we can operate a chain elongating bioreactor sustainably at a pH level of 7.0.

For data set [3], the system named is reactor microbiome. The experiment in a line: inhibition of the chain-elongating reactor microbiome in the continuously fed upflow anaerobic filter. The format is cell-based. The note with it: for high residual concentration that inhibits microbial activity: bioreactor broth, mildly acidic pH, n-caprylic acid as undissociated acid. The procedure:
Experimental. Continuously fed bioreactor system. An upflow anaerobic filter was used with constant bioreactor broth recycling through an in-line membrane liquid-liquid extraction (i.e. pertraction) system (FIG. 8). The bioreactor was a vertically oriented cylinder, which was made of Plexiglas®, with an inner diameter of 6 cm. The total volume was 0.90 L, but […]1 packing material (Evolution Aqua, Wigan, United Kingdom) was added, resulting in a working volume of 0.70 L. […] A pH probe (Mettler 405-[…], Columbus, Ohio, USA) was mounted at the top of the bioreactor. Automated pH control of the bioreactor broth was maintained with a controller (Eutech Instruments alpha-pH800, Vernon Hills, Ill., USA) and a corresponding acid addition pump ([…] 913, Bradenton, Fla., USA). […] The effluent continuously exited the bioreactor via an overflow line connected to the top of the bioreactor. The exit of the overflow line was submerged within a secondary effluent reservoir. An inverted funnel was used to collect the biogas within the bioreactor and was connected to a flow meter (Ritter MGC-1, Bochum, Germany). In addition, a gas-sample septum and a bubbler were placed in the gas collection system. A sampling port for biomass samples was placed halfway up the vertically oriented bioreactor. Periods for the bioreactor study. This bioreactor was divided into two phases: I) a start-up phase with continuous feeding (with the product extraction system on or off); and II) a high n-caprylate productivity phase (with continuous feeding and the product extraction system on). Each phase was then divided into several distinct operating periods. From period to period, several operating parameters were varied, including the: organic loading rate (OLR); HRT; bioreactor pH; and operation with or without product extraction (Table 1). Each operating period was operated for at least five HRT periods, and average bioreactor loading rates and concentrations were reported. During Period 1 in Phase I (Days 0-15), pre-washed inoculum was added to the upflow anaerobic filter after which a continuous feeding strategy was initiated. […] The bioreactor was re-inoculated on Day 15 of Period 2 in Phase I (Days 15-54) with pre-washed inoculum, and then again on Day 54 of Period 3 of Phase I (Days 54-64) with non-washed inoculum. This last inoculation carried some carboxylates from the inoculation bioreactor. During Period 4 of Phase I (Days 64-80), the product extraction was turned off. […] In addition, we increased the OLR from 1.8 to 3.8 g COD/L-d (Table 2). Day 98 represented the start of Phase II (Period 6; Days 98-128), by switching on the product extraction system. Next, we increased the OLRs in a step-wise fashion during 4 out of the next 5 periods in Phase II. […]

Turning to `CCCCCC(=O)O` [n-caproic acid], the “solubility limit of the undissociated acid” value in data set [1] is on record as 93 mM.

Regarding `CCCCCCCC(=O)O` [n-caprylic acid], the “toxicity of undissociated acid to methanogens” value in data set [2] is listed as “toxic”. Also, the “high residual concentration that inhibits microbial activity” value in data set [3] is given as 0.62 mM. Besides, in data set [3] (undissociated acids, toxicity to the community), the “toxic concentration, times lower than n-caproic acid” value is recorded as “approximately 10 ×”.

In the case of `CCO` [ethanol], in data set [3] (Period 11, bioreactor broth), the “residual ethanol concentration at which microbial inhibition was reached” value is reported as ~28 g COD/L. Also, the “high residual concentration that inhibits microbial activity” value in data set [3] is given as ~300 mM.
